# Several values for one entry are separate records, joined by “and”; a condition that tells them apart may be missing. Equal entries are not always repeated.
# Experiments:
# [1] = system: pulmonary vagal afferent A fibers (P2X3/P2X2/3-receptors); test: Perfused nerve-lung preparation: action potentials in A fibers; format: cell-based, guinea pig; details: A fibers, 30 min, α,βmATP 10 uM 1 ml bolus
# Method: (§1) The method for the extracellular recording of the activity of vagal sensory neurons projecting to guinea pig lungs -has been described in detail previously in Canning et al. [(2004) J. Physiol. 557:543-545], which is incorporated herein by reference in its entirety. Briefly, male Hartley guinea pigs (100-200 g) were killed with CO2 inhalation and exsanguination. The blood from the pulmonary circulation was washed out by in situ perfusion with Krebs' bicarbonate solution (KBS; comprised of 118 mM NaCl, 5.4 mM KCl, 1.0 mM NaH2PO4, 1.2 mM MgSO4, 1.9 mM CaCl2, 25.0 mM NaHCO3, 11.1 mM dextrose, and gassed with 95% O2-5% CO2 at pH7.4). The KBS contained 3 uM indomethacin to reduce the indirect influence of tissue prostanoids on sensory fiber activity. Trachea and right lungs, having intact right-side extrinsic vagal innervation by the inclusion, e.g., of right jugular and nodose ganglia, were dissected from the exsanguinated guinea pigs and placed in a two-compartment tissue bath. The right nodose and jugular ganglia, along with the rostral vagus nerve, were placed into one compartment of the tissue bath whereas the lung and trachea were placed into the second compartment of the tissue bath. The two compartments were separately superfused with KBS (6 ml min^−1, at 37° C.).
# (§2) The pulmonary artery and trachea were cannulated with polyethylene (PE) tubing and continuously perfused with KBS (4 ml min^−1 and 2 ml min^−1, respectively). […]
# (§3) Once a mechanosensitive receptive field was identified, a brief [<1 millisecond (ms)] electrical stimulus was delivered by a small concentric electrode that was positioned over a discrete region of the mechanosensitive receptive field to determine the conduction velocity of the fiber. […] Conduction velocity was calculated by dividing the distance along the nerve pathway by the time between the shock artifact and the action potential evoked by electrical stimulation of the mechanosensitive receptive field. […]
# [2] = system: pulmonary vagal afferent C fibers (P2X3/P2X2/3-receptors); test: Perfused nerve-lung preparation: action potentials in C fibers; format: cell-based, guinea pig; details: C fibers, 30 min, α,βmATP 10 uM 1 ml bolus
# Method: as §1, §2, §3
# [3] = system: human subjects (cough, throat irritation, sputum); test: Symptoms other than dyspnoea recorded after inhalation challenge; format: in vivo; details: all subjects
# Source text: (§4) The clinical study described in Examples 2-4 was randomized, double blind, crossover, and controlled. Each subject attended the laboratory on three occasions. Procedures on the initial screening visit included obtaining information about the study and a number of investigations in the following order: medical history, lung function, reversibility and skin prick testing. At visit 2 and 3, separated by 2-7 days, the subjects were subjected to either an ATP or AMP challenge in a randomized fashion such that, by the end of the study, each patient had been tested with both compounds. Before, immediately after, and 30 minutes after the challenge, lung function and Borg score for dyspnoea were determined, and symptoms other than dyspnoea were recorded.
# (§5) For the tests described in Examples 2-4, ATP and AMP (Sigma, Gillingham, Dorset, England) were dissolved freshly in normal saline solution to produce a range of doubling concentrations from 0.227-929 umol/ml for ATP and from 0.138-1152 umol/ml for AMP and immediately used for bronchial challenge. The solutions were administered using a breath-activated dosimeter (Mefar, Bovezzo, Italy) with an output of 10 ul per inhalation [Prieto et al. (2003) Chest 123:993-997]. The subjects, while wearing a nose clip, inhaled (via a mouthpiece) five breaths of normal saline, followed by sequential doubling concentrations of either ATP or AMP from functional residual capacity to total lung capacity. FEV1 was measured from two minutes after the fifth inhalation of normal saline until there was a fall in FEV1 of ≧20% of its value recorded after saline inhalation or until maximal concentration of either ATP or AMP was inhaled. The provocative dose causing a 20% decrease in FEV1 (PD20) was calculated by interpolation of the logarithmic dose response curve.
# [4] = system: human subjects (perception of dyspnoea); test: Borg score for dyspnoea before and after inhalation challenge; format: in vivo; design: key to ΔBorg (change in Borg score before and after challenge): Borg score after minus before challenge; 0–10 scale
# Source text: as §4
# The modified Borg scale used to quantitate dyspnoea in the clinical study described in Examples 2-4 was a category scale in which words describing degrees of breathlessness were anchored to numbers between 0 and 10. The subjects were asked to select a number whose corresponding words most appropriately described their perception of breathlessness. The change in dyspnoea was expressed as ΔBorg, which was the difference in Borg score before and after the challenge [Rutgers et al. (2000) Eur. Respir. J. 16:486-490; Burdon et al. (1982) Am. Rev. Respir. Dis. 126:825-828]. Terms and associated numbers used in assessing Borg score were as follows: 0, “nothing at all”; 0.5, “very, very slight”; 1, “very slight”; 2, “slight”; 3, “moderate”; 4, “somewhat severe”; 5, “severe”; 7, “very severe”; 9, “very, very severe (almost maximal)”; and 10, “maximal” [Burdon et al. (1982)].
# as §5
# [5] = system: human subjects (airway responsiveness, FEV1); test: Inhalation challenge test: airway responsiveness measured as change in FEV1 (PD20); format: in vivo; details: for PD20 geometric mean: non-responders excluded; for PD20: individual subjects
# Source text: as §4
# In the clinical study described in Examples 2-4, spirometric tests were performed using a dry spirometer (Vitalograph Ltd., Buckingham, England) and the best value of the three expiratory manoeuvers was expressed as liters and percentage of the predicted.
# as §5
# All data from the analyses described in Examples 2-4 were performed with a software package (GraphPad Prism Software, Inc., USA). The significance of differences among groups was assessed by Student's t-test, and analysis of categorical variables was examined by Chi-square test. Pearson's correlation coefficient and linear regression analysis were used to analyze the relationship between the percentage decreases in FEV1 and Borg score. The PD20 values for ATP and AMP were logarithmically transformed to normalize their distribution and presented as geometric means. All other numerical variables were expressed as the mean±SEM and significance was defined as p<0.05.
# [6] = system: vagal C fiber; test: Vagal activation experiments in dogs: action potentials in vagal C fibers; format: in vivo; details: anesthetized dog, rapid bolus; simultaneous recording with RAR-containing fiber
# Method: (§6) The experiments described in Example 5 were performed essentially as described in Pelleg et al. [(1996) J. Physiol. 490(1):265-275] and U.S. Pat. No. 5,874,420, both of which are incorporated herein by reference in their entirety. In brief, they were performed on anesthetized (sodium pentobarbitone, 30 mg kg^−1 plus 3 mg kg^−1 h^−1, intravenous) dogs artificially ventilated with room air using a respirator. Arterial blood pH, PO2, PCO2, body temperature were maintained as described in U.S. Pat. No. 5,874,420. A peripheral vein was cannulated for the administration of physiological saline solution and maintenance doses of anesthetic. Catheters were introduced via the femoral vein and left atrial appendage and positioned in the right atrium and left atrium for the administration of test solutions. The chest was opened by a longitudinal sternotomy. The right cervical vagosympathetic trunk was exposed by a midcervical longitudinal section of the skin and careful dissection of neck muscles and connective tissues. The edges of the cut skin were elevated and secured to create a trough which was filled with warm (about 37° C.) mineral oil. A section of the vagosympathetic trunk was placed on a small plate of black Perspex™ and fine branches were separated from the main bundle by careful dissection using microsurgical tools and a dissecting microscope (Model F212, Jenopik Jena, GmbH, Germany).
# Extracellular neural action potentials were recorded using a custom-made bipolar electrode that contained two platinum-iridium wires (1.25 cm×0.0125 cm) connected to a high-impedence first-stage differential amplifier (model AC8331, CW, Inc., Ardmore, Pa.) via a shielded cable. The output of the first-stage amplifier was fed into a second-stage differential amplifier (model BMA-831/C, CWE, Inc.). Isolated fibers were laid on the pair of platinum-iridium wires. Vagal C fibers with chemosensitive endings have a sparse irregular discharge which is not associated with cardiac or respiratory cycles. […]
# ATP (3 umole kg^−1) and capsaicin (10 ug kg^−1) were administered as a rapid bolus into the right atrium (5 ml test solution+5 ml physiological saline flush). α,βmATP and β,γmATP were given as one low dose only (0.75 umol kg^−1) to avoid systemic side effects. […] To exclude involvement of baroreceptors in the recorded neural activity, the latter was monitored before and after a bolus of nitroglycerine (1 mg; intravenous). […]
# [7] = system: pulmonary RAR-containing afferent nerve fiber; test: Vagal activation experiments in dogs: action potentials in RAR-containing fibers; format: in vivo; details: anesthetized dog, rapid bolus; ATP 6 μmol/kg, capsaicin 10 ug kg−1, analogs 0.75 umol kg−1
# Method: as §6
# Extracellular neural action potentials were recorded using a custom-made bipolar electrode that contained two platinum-iridium wires (1.25 cm×0.0125 cm) connected to a high-impedence first-stage differential amplifier (model AC8331, CW, Inc., Ardmore, Pa.) via a shielded cable. The output of the first-stage amplifier was fed into a second-stage differential amplifier (model BMA-831/C, CWE, Inc.). Isolated fibers were laid on the pair of platinum-iridium wires. Vagal C fibers with chemosensitive endings have a sparse irregular discharge which is not associated with cardiac or respiratory cycles. Confirmation of fiber type was obtained by: first monitoring the response to capsaicin (10 microg kg^−1, intra-right atrial bolus); second, monitoring the response to mechanical stimulation of the lungs using gentle probing with forceps as well as inflation of the lungs to 2-3 times the tidal volume; and third, determining the speed of conduction using a stimulating electrode positioned distal to the initial recording site. Nerve fibers with RAR on their pulmonary endings, spontaneously fire a brief (i.e., short lasting) volley of action potentials associated with peak tracheal pressure during each respiratory cycle.
# […] Volume controls consisted of either 5 ml+5 ml or 1 ml+3 ml physiological saline. All injections were performed in the same mode by the same person. To exclude involvement of baroreceptors in the recorded neural activity, the latter was monitored before and after a bolus of nitroglycerine (1 mg; intravenous).
# The procedure described in Example 1 was used to measure action potentials in dog pulmonary fibers with RAR on their terminals following administration of various agents. RAR activation generated a brief volley of action potentials associated with each respiratory cycle that was seen before as well as after administration of ATP (FIG. 7). […] Thus ATP modified the activity of the RAR-containing fiber manifested in their transient loss of the rapid adaptability characteristic.
smiles,measurement,setting,value
"O=C(O)c1cc(C(=O)O)c(C(=O)N(Cc2cccc(Oc3ccccc3)c2)[C@H]2CCCc3ccccc32)cc1C(=O)O [A-317491, 5-({(3-phenoxybenzyl)[(1S)-1,2,3,4-tetrahydro-1-napththalenyl]amino}carbonyl)-1,2,4-benzenetricarboxylic acid]","inhibition of the action of α,βmATP",[1]; antagonist 1 uM,59±12%
same,"reduction of response to α,βmATP",[1]; antagonist 10 uM,88±5%
same,"inhibition of the action of α,βmATP",[2]; antagonist 1 uM,no inhibitory effect
same,"reduction of response to α,βmATP",[2]; antagonist 10 uM,62±5%
"Nc1ncnc2c1ncn2[C@@H]1O[C@H](COP(=O)(O)O)[C@@H](O)[C@H]1O [AMP, adenosine 5′-monophosphate]",subjects who coughed after challenge,[3],48%
same,subjects who had sputum after challenge,[3],10%
same,subjects who had throat irritation after challenge,[3],53%
same,ΔBorg (change in Borg score before and after challenge),[4]; COPD,0.6
same,Borg score after challenge (at PD20),[4]; COPD patients,0.8
same,Borg score after challenge (at PD20),[4]; patients with asthma,2.5
same,ΔBorg (change in Borg score before and after challenge),[4]; patients with asthma,2.3
same,patients with bronchoconstriction,"[5]; 19 smoking subjects (seven healthy smokers, seven smokers at risk, five COPD)",21%
same,PD20 geometric mean,[5]; COPD (n = 7),210.6 µmol/mL
same,patients who responded to challenge,[5]; COPD patients,33%
same,PD20 geometric mean (range),[5]; all subjects who had airway responsiveness,82.9 (0.9-576.0) umol/ml
same,PD20 geometric mean,[5]; asthma (n = 10),113.5 µmol/mL
same,response to challenge,"[5]; healthy non-smokers, no change in FEV1 or reduction of less than 20%",negative
same,subjects who responded to challenge,[5]; healthy smokers,14%
same,PD20 geometric mean,[5]; healthy smokers (n = 7),74.6 µmol/mL
same,PD20,[5]; COPD (n = 7),0.9 μmol/ml and >1152 μmol/ml (4×) and 72.0 μmol/ml and 168.4 μmol/ml
same,PD20,[5]; asthma (n = 10),576.0 µmol/mL and 3.46 µmol/mL and 54.7 µmol/mL and 559.3 µmol/mL and 461.7 µmol/mL and 176.0 µmol/mL and >1152 µmol/mL and 15.8 µmol/mL and 556.4 µmol/mL and 72.0 µmol/mL
same,PD20,[5]; healthy smokers (n = 7),>1152 μmol/ml (6×) and 74.6 μmol/ml
same,PD20,"[5]; non-smokers (n = 10), provocative dose causing 20% decrease in FEV1",>1152 µmol/mL
same,PD20,[5]; smokers at risk (n = 7),>1152 μmol/ml (6×) and 576.0 μmol/ml
same,PD20 geometric mean,[5]; non-smokers (n = 10),>1152 µmol/mL
same,subjects responsive to challenge,[5]; of the 40 subjects in the study,32.5%
same,patients who responded to challenge,[5]; patients with asthma,90%
same,ΔFEV1 (decrease in FEV1 as percentage of baseline FEV1),[5]; patients with asthma,22%
same,subjects who responded to challenge,[5]; smokers at risk,14%
same,PD20 geometric mean,[5]; smokers at risk (n = 7),576.0 µmol/mL
COc1cc(CNC(=O)CCCC/C=C/C(C)C)ccc1O [capsaicin],effect on action potentials of C fibers,[6],stimulated only the former
same,effect on action potentials of RAR-containing fibers,[7],did not alter the firing pattern
"Nc1ncnc2c1ncn2[C@@H]1O[C@H](COP(=O)(O)OP(=O)(O)CP(=O)(O)O)[C@@H](O)[C@H]1O [β,γmATP, β,γ-methylene ATP]",effect on action potentials of C fibers,[6],acted similarly to ATP
same,effect on action potentials of RAR-containing fibers,[7],acted similarly to ATP

# — patent US20060029548A1, “Methods of diagnosing, monitoring and treating pulmonary diseases” (priority 2004, published 2006)
